In patent US20200179380A1, “SOLUTE AND SOLUTE MIXTURE, AS WELL AS A COMPOSITION COMPRISING AT LEAST ONE SOLUTE, FOR USE IN THE PREVENTION OR TREATMENT OF COSMETIC OR PATHOLOGIC EFFLORESCENCES CAUSED BY AIRBORNE PARTICLES” (bitop AG, priority 2014, published 2020):
Values joined by “and” are separate entries in the source; they are usually repeats but may differ in a detail not shown here. Equal entries are not always repeated. Where two headings read alike, the source gives them in different places.

Assays:
Assay type in all cases: cell-based, human
Cyp1a1 gene = Cyp1a1 gene expression (real-time PCR, relative to 18s-rRNA) in keratinocytes exposed to model particles; conditions: for inhibition at 2000 µM / activity at 2000 µM: Homo sapiens, Keratinocyte, 2 mM S-ectoine; for activity at 2000 µM: read-out: Cyp1a1 Remaining activity %
Description: The model particles were suspended in phosphate buffered saline solution and treated with ultrasound for 1 minute ([…]90, SRM1650 and SRM2975) or 90 seconds (Huber990). Subsequently, addition to keratinocytes was done immediately. […] The incubation time of keratinocytes under the influence of model particles was 24 hours. Human epidermal keratinocytes were taken from healthy patients during abdominoplasty or breast reduction with the consent of the patients. The tissue donors originate in Asia or were of Caucasian origin. The keratinocytes isolated from the tissues were cultivated in Keratinocyte-SFM (Gibco®, Life Technologies GmbH, Darmstadt, Germany). The medium was enriched by 5 mg/L of human recombinant epidermal growth factor (EGF), 50 mg/L pituitarium which is an extract from pituitary gland from bovine (Bovine Pituitary Extract, BPE), 1% L-glutamine, 1% streptomycin/amphotericin B (Invitrogen, Karlsruhe, Germany). The cultivation was done at humid atmosphere in the presence of 5% CO2. Subconfluent keratinocytes were transferred to sample vessels having 12 sample wells (12-well plates), and were each cultivated in the sample wells. Treatment with the model particles was also done in the sample wells. […] After an incubation time of 24 hours in the presence of the model particles, RNA was isolated from the keratinocytes and relative RNA content was determined. The expression of proinflammatory gene ICAM-1, POMC gene encoding for proopiomelanocortin, MMP1 gene encoding for a human collagenase, and Cyp1a1 encoding for a phase-I-enzyme of Cytochrome P450 superfamily was investigated as a marker for the influence of the model particles on skin condition. The enzyme encoded by Cyp1a1 gene ranks among the group of phase-I-P450-Cytochrome enzymes and mediates metabolism of drugs, foreign substances and environmental toxins. The Cy1a1 enzyme is a monooxygenase and responsible for metabolizing the afore-mentioned compounds. The protein is encoded in endoplasmic reticulum and its expression can severely be induced by polycyclic aromatic hydrocarbons. The enzyme encoded by Cyp1a1 metabolizes environmental noxae, in particular polycyclic aromatic hydrocarbons, into cancer-causing intermediates. Cyp1a2 is a family member related to Cyp1a1. Increased Cyp1a1 expression, and, in particular, increased Cyp1a2 expression, thus proves detoxification reaction. The total RNA content was determined according to […] et al. ([…]-Beck […], Brenden H, […]. “Bioactive molecules from the Blue Lagoon: in vitro and in vivo assessment of silica mud and microalgae extracts for their effects on skin barrier function and prevention of skin ageing”. Exp Dermatol 2008 17:771.). For this purpose, the total RNA was isolated using RNeasy Total RNA Kits (Qiagen, Hilden; Germany). The RNA concentration was photometrically determined at 260/280 nm (Biophotometer, Eppendorf, Hamburg, Germany). Aliquots of total RNA of 100 ng were used for first strand cDNA synthesis using Superscript® III for the transcription step using random primers (Invitrogen, Karlsruhe, Germany). […] For the total RNA content a specific primer for the proof of 18s rRNA was designed. Independent experiments were performed with a triple determination in each case, and the mean was determined. PCR reaction was done using CFX384 TouchTM Real-Time PCR Detection System (Bio-Rad, München, Germany). In order to fluorescent marking SybrGreen-Mix was used (Thermo Fisher Scientific, St. Leon-Rot, Germany). For each experiment three samples, respectively, were determined in duplicate, and the mean was determined. […] (activation of heat-activating taq polymerase) 10 seconds at 95° C. (denaturation), 20 seconds at 55° C. (annealing), 20 seconds at 72° C. (elongation). Likewise, for comparison of relative expression the expression of untreated keratinocytes was investigated. […] Methods 25: 402-408). […] The data underlying the statistical analysis are not shown here.

POMC gene = POMC gene expression (real-time PCR, relative to 18s-rRNA) in keratinocytes exposed to model particles; conditions: for inhibition at 2000 µM / activity at 2000 µM: Homo sapiens, Keratinocyte, 2 mM S-ectoine; for activity at 2000 µM: read-out: POMC Remaining activity %; for POMC expression ±S-ectoine mean ± SD: 24 h pretreatment with 2 mM S-ectoine, untreated = 1; for POMC expression induced by model particles after ectoine pretreatment (in words): Printex90, Huber 990, SRM1650, SRM2975, pretreatment with 2 mM ectoine for 24 hours
MMP1 gene = MMP1 gene expression (real-time PCR, relative to 18s-rRNA) in keratinocytes exposed to model particles; conditions: for inhibition at 2000 µM / activity at 2000 µM: Homo sapiens, Keratinocyte, 2 mM S-ectoine; for activity at 2000 µM: read-out: MMP1 Remaining activity %; for MMP1 expression ±S-ectoine mean ± SD: 24 h pretreatment with 2 mM S-ectoine, untreated = 1
Description: The model particles were suspended in phosphate buffered saline solution and treated with ultrasound for 1 minute ([…]90, SRM1650 and SRM2975) or 90 seconds (Huber990). Subsequently, addition to keratinocytes was done immediately. […] The incubation time of keratinocytes under the influence of model particles was 24 hours. Human epidermal keratinocytes were taken from healthy patients during abdominoplasty or breast reduction with the consent of the patients. The tissue donors originate in Asia or were of Caucasian origin. The keratinocytes isolated from the tissues were cultivated in Keratinocyte-SFM (Gibco®, Life Technologies GmbH, Darmstadt, Germany). The medium was enriched by 5 mg/L of human recombinant epidermal growth factor (EGF), 50 mg/L pituitarium which is an extract from pituitary gland from bovine (Bovine Pituitary Extract, BPE), 1% L-glutamine, 1% streptomycin/amphotericin B (Invitrogen, Karlsruhe, Germany). The cultivation was done at humid atmosphere in the presence of 5% CO2. Subconfluent keratinocytes were transferred to sample vessels having 12 sample wells (12-well plates), and were each cultivated in the sample wells. Treatment with the model particles was also done in the sample wells. […] After an incubation time of 24 hours in the presence of the model particles, RNA was isolated from the keratinocytes and relative RNA content was determined. The expression of proinflammatory gene ICAM-1, POMC gene encoding for proopiomelanocortin, MMP1 gene encoding for a human collagenase, and Cyp1a1 encoding for a phase-I-enzyme of Cytochrome P450 superfamily was investigated as a marker for the influence of the model particles on skin condition. The collagenase encoded by MMP1 gene ranks among the matrix metalloproteases and cleaves the peptide bond between proline and other amino acids of collagen I, II, III, VII and X, thereby degrading the collagen. Collagenases and, in particular, the MMP1 collagenase are involved in tissue remodeling and biological processes of the skin, such ach morphogenesis or tumor growth (benign or malign tumor formation). Thus, increased expression of MMP1 gene is a proof for increased activity of the skin cells, in particular keratinocytes. Increased MMP1 gene expression can be an indication of excessive cell growth and, thereby, of benign or malign carcinogenesis. The total RNA content was determined according to […] et al. ([…]-Beck […], Brenden H, […]. “Bioactive molecules from the Blue Lagoon: in vitro and in vivo assessment of silica mud and microalgae extracts for their effects on skin barrier function and prevention of skin ageing”. Exp Dermatol 2008 17:771.). For this purpose, the total RNA was isolated using RNeasy Total RNA Kits (Qiagen, Hilden; Germany). The RNA concentration was photometrically determined at 260/280 nm (Biophotometer, Eppendorf, Hamburg, Germany). Aliquots of total RNA of 100 ng were used for first strand cDNA synthesis using Superscript® III for the transcription step using random primers (Invitrogen, Karlsruhe, Germany). […] For the total RNA content a specific primer for the proof of 18s rRNA was designed. Independent experiments were performed with a triple determination in each case, and the mean was determined. PCR reaction was done using CFX384 TouchTM Real-Time PCR Detection System (Bio-Rad, München, Germany). In order to fluorescent marking SybrGreen-Mix was used (Thermo Fisher Scientific, St. Leon-Rot, Germany). For each experiment three samples, respectively, were determined in duplicate, and the mean was determined. The PCR protocol comprised 46 cycles, each cycle 15 minutes at 94° C. (activation of heat-activating taq polymerase) 10 seconds at 95° C. (denaturation), 20 seconds at 55° C. (annealing), 20 seconds at 72° C. (elongation). Likewise, for comparison of relative expression the expression of untreated keratinocytes was investigated. […] Methods 25: 402-408). […] The data underlying the statistical analysis are not shown here.

[1] = Printex90, Huber 990, SRM1650, SRM2975, pretreatment with 2 mM ectoine

Cyp1a1 expression induced by model particles after ectoine pretreatment (in words) (Cyp1a1 gene; [1]): inhibited
Cyp1a1 expression ±S-ectoine mean ± SD (Cyp1a1 gene; Printex90 particles, 24 h pretreatment with 2 mM S-ectoine, untreated = 1): 1.19 and 1.19 ± 0.29
SMILES: CC1=N[C@H](C(=O)O)CCN1 [S-ectoine, (S)-1,4,5,6-tetrahydro-2-methyl-4-pyrimidine carboxylic acid]
inhibition at 2000 µM (Cyp1a1 gene; Huber990 particles): 57%
activity at 2000 µM (Cyp1a1 gene; Huber990 particles): 43%
inhibition at 2000 µM (Cyp1a1 gene; Printex90 particles): 70%
activity at 2000 µM (Cyp1a1 gene; Printex90 particles): 30%
inhibition at 2000 µM (Cyp1a1 gene; SRM1650 particles): 46%
activity at 2000 µM (Cyp1a1 gene; SRM1650 particles): 54%
inhibition at 2000 µM (Cyp1a1 gene; SRM2975 particles): 41%
activity at 2000 µM (Cyp1a1 gene; SRM2975 particles): 59%
inhibition at 2000 µM (POMC gene; Huber990 particles): 100%
activity at 2000 µM (POMC gene; Huber990 particles): 0%
inhibition at 2000 µM (POMC gene; Printex90 particles): 100%
activity at 2000 µM (POMC gene; Printex90 particles): 0%
inhibition at 2000 µM (POMC gene; SRM1650 particles): 99%
activity at 2000 µM (POMC gene; SRM1650 particles): 1%
inhibition at 2000 µM (POMC gene; SRM2975 particles): 100%
activity at 2000 µM (POMC gene; SRM2975 particles): 0%
POMC expression ±S-ectoine mean ± SD (POMC gene; Huber990 particles): 0.83 ± 0.04+
POMC expression induced by model particles after ectoine pretreatment (in words) (POMC gene): significant inhibition
POMC expression induced by model particles after ectoine pretreatment (in words) (POMC gene; listed as ectoine): inhibited
POMC expression ±S-ectoine mean ± SD (POMC gene; Printex90 particles): 0.88 ± 0.05+
POMC expression ±S-ectoine mean ± SD (POMC gene; SRM1650 particles): 1.01 ± 0.05+
POMC expression ±S-ectoine mean ± SD (POMC gene; SRM2975 particles): 0.99 ± 0.08+
inhibition at 2000 µM (MMP1 gene; Huber990 particles): 42%
activity at 2000 µM (MMP1 gene; Huber990 particles): 58%
inhibition at 2000 µM (MMP1 gene; SRM1650 particles): 26%
activity at 2000 µM (MMP1 gene; SRM1650 particles): 74%
MMP1 expression induced by model particles after ectoine pretreatment (in words) (MMP1 gene; [1]): inhibited
MMP1 expression ±S-ectoine mean ± SD (MMP1 gene; Printex90 particles): 0.82 ± 0.10
MMP1 expression ±S-ectoine mean ± SD (MMP1 gene; SRM2975 particles): 1.28 ± 0.22
